Data reported in patent US9630977B2, “Cephalosporin derivatives and pharmaceutical compositions thereof” (Legochem Biosciences, Inc., priority 2011, dated 2017).
Converted amounts (≈) assume the structure as drawn. Like-named read-outs stand apart in the source and are kept apart here.

What was measured:
Type in all cases: cell-based
A. baumannii 46 = assay: In vitro antibacterial activity test (broth microdilution); conditions: A. baumannii 46
Outline: (§1)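 MIC90 (ug/mL) reported. CLSI microdilution in broth, clinical strains, 0.0626–128 ug/mL final compound, 2.5% v/v DMSO co-solvent.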

A. baumannii 49 = assay: as above; conditions: A. baumannii 49
Outline: as §1

A. baumannii 52 = assay: as above; conditions: A. baumannii 52
Outline: as §1

[1] = test system: A. calcoaceticus ATCC15473; assay: as above; conditions: A. calcoaceticus ATCC15473
Outline: as §1

E. cloacae β19 = assay: as above
Outline: as §1

E. coli AG100 = assay: as above
Outline: as §1

E. coli β4 = assay: as above
Outline: as §1

K. pneumoniae 2011E = assay: as above; conditions: K. pneumoniae 2011E
Outline: as §1

K. pneumoniae β10 = assay: as above; conditions: K. pneumoniae β10
Outline: as §1

K. pneumoniae β11 = assay: as above; conditions: K. pneumoniae β11
Outline: as §1

K. pneumoniae β13 = assay: as above; conditions: K. pneumoniae β13
Outline: as §1

K. pneumoniae β14 = assay: as above
Outline: as §1

K. pneumoniae β9 = assay: as above; conditions: K. pneumoniae β9
Outline: as §1

M. catarrhalis 2524 = assay: as above; conditions: M. catarrhalis 2524
Outline: as §1

P. aeruginosa 1912E = assay: as above
Outline: as §1

P. aeruginosa 37 = assay: as above
Outline: as §1

P. aeruginosa 40 = assay: as above
Outline: as §1

P. aeruginosa 43 = assay: as above; conditions: P. aeruginosa 43
Outline: as §1

P. aeruginosa 6065Y = assay: as above
Outline: as §1

[2] = test system: A. baumannii (6 clinical isolates); assay: Antibacterial activity on representative drug-resistance bacteria: number of clinical isolates per MIC value; conditions: A. baumanni (N = 6)
Method: (§2) The in vitro antibacterial activity was evaluated by measuring MIC90 (ug/mL) of each of the compounds of Examples 1 to 68, which is defined as the lowest concentration of an antibiotic that will inhibit the visible growth of 90% of microorganisms after incubation as compared with a control group to which the antibiotic is not treated. MIC90 values were measured by the broth microdilution method developed by the Clinical and Laboratory Standards Institute (CLSI) (see CLSI M7-A5, Methods for Dilution Antimicrobial Susceptibility Test for Bacteria that Grow Aerobically-Fifth Edition (2000): CLSI, Villanova, Pa.).
(§3) Test compounds each (the cephalosporin derivative compounds prepared in Examples 1 to 68) were dissolved in DMSO at the concentration of 10,240 ug/mL, were diluted by two fold with DMSO, and then were diluted by twenty fold with sterilized distilled water. The final concentration in the antibacterial activity test was in the range of […] to 128 ug/mL, and the final concentration of DMSO used as an adjuvant was 2.5% (V/V).

[3] = test system: K. pneumoniae (38 clinical isolates); assay: as above; conditions: K. pneumomiae (N = 38)
Method: as §2, §3

[4] = test system: P. aeruginosa (16 clinical isolates); assay: as above; conditions: P. aeruginosa (N = 16)
Method: as §2, §3

19 clinical isolates = assay: In vitro antibacterial activity test, panel of 19 clinical isolates as a whole; conditions: effect of a siderophore group, Table 1
Method: To evaluate antibacterial activity of each of the compounds of Examples 1 to 68, in vitro antibacterial activity test was performed.
as §2
In vitro antibacterial activity was measured with respect to the following 19 clinical isolates: M. catarrhalis; P. aeruginosa (5 strains); K. pneumoniae (6 strains); A. baumannii (3 strains); E. coli (2 strains); A. calcoaceticus; and E. cloacae.
as §3

[5] = Acinetobacter baumannii, read-out: MIC90
[6] = Klebsiella pneumoniae, read-out: MIC90
[7] = Pseudomonas aeruginosa, read-out: MIC90

CC(C)(O/N=C(\C(=O)N[C@@H]1C(=O)N2C(C(=O)[O-])=C(/C=C/C[n+]3cnc(N)c(NCCNC(=O)c4cc(=O)c(O)cn4O)c3)CSC12)c1csc(N)n1)C(=O)O (stereo partly shown) [Compound 11]
MIC90 (A. baumannii 46): 4 µg/mL (≈ 5 µM)
MIC90 (A. baumannii 49): >128 µg/mL
MIC90 (A. baumannii 52): >128 µg/mL
MIC90 [1]: 1 µg/mL (≈ 1.25 µM)
MIC90 (E. cloacae β19): 64 µg/mL (≈ 80 µM)
MIC90 (E. coli AG100; E. coli AG100): 0.125 µg/mL (≈ 0.156 µM)
MIC90 (E. coli β4): 0.125 µg/mL (≈ 0.156 µM)
MIC90 (K. pneumoniae 2011E): 0.5 µg/mL (≈ 0.625 µM)
MIC90 (K. pneumoniae β10): <0.0625 µg/mL
MIC90 (K. pneumoniae β11): >128 µg/mL
MIC90 (K. pneumoniae β13): <0.0625 µg/mL
MIC90 (K. pneumoniae β14): 8 µg/mL (≈ 10 µM)
MIC90 (K. pneumoniae β9): <0.0625 µg/mL
MIC90 (M. catarrhalis 2524): 0.25 µg/mL (≈ 0.313 µM)
MIC90 (P. aeruginosa 1912E): 1 µg/mL (≈ 1.25 µM)
MIC90 (P. aeruginosa 37; P. aeruginosa 37): 1 µg/mL (≈ 1.25 µM)
MIC90 (P. aeruginosa 40; P. aeruginosa 40): 0.5 µg/mL (≈ 0.625 µM)
MIC90 (P. aeruginosa 43): 1 µg/mL (≈ 1.25 µM)
MIC90 (P. aeruginosa 6065Y): 4 µg/mL (≈ 5 µM)
number of clinical isolates that showed the respective MIC value ([2]; MIC 2 ug/mL): 1
number of clinical isolates that showed the respective MIC value ([2]; MIC >16 ug/mL): 5
number of clinical isolates that showed the respective MIC value ([3]; MIC 0.5 ug/mL): 1
number of clinical isolates that showed the respective MIC value ([3]; MIC 2 ug/mL): 1
number of clinical isolates that showed the respective MIC value ([3]; MIC 8 ug/mL): 1
number of clinical isolates that showed the respective MIC value ([3]; MIC >16 ug/mL): 35
number of clinical isolates that showed the respective MIC value ([4]; MIC 0.125 ug/mL): 1
number of clinical isolates that showed the respective MIC value ([4]; MIC 0.5 ug/mL): 3
number of clinical isolates that showed the respective MIC value ([4]; MIC 1 ug/mL): 2
number of clinical isolates that showed the respective MIC value ([4]; MIC 2 ug/mL): 2
number of clinical isolates that showed the respective MIC value ([4]; MIC 4 ug/mL): 3
number of clinical isolates that showed the respective MIC value ([4]; MIC 8 ug/mL): 2
number of clinical isolates that showed the respective MIC value ([4]; MIC 16 ug/mL): 1
number of clinical isolates that showed the respective MIC value ([4]; MIC >16 ug/mL): 2
antibacterial activity (in words) (19 clinical isolates): significantly improved

CC(C)(O/N=C(\C(=O)N[C@@H]1C(=O)N2C(C(=O)[O-])=C(/C=C/C[n+]3cnc(N)c(NCCNC(=O)c4cc(=O)c(O)cn4O)c3)CSC12)c1nc(N)sc1Cl)C(=O)O (stereo partly shown) [Compound 26]
MIC90 (A. baumannii 46; [5]): 2 µg/mL (≈ 2.4 µM)
MIC90 (A. baumannii 49; [5]): 16 µg/mL (≈ 19.2 µM)
MIC90 (A. baumannii 52; [5]): 2 µg/mL (≈ 2.4 µM)
MIC90 ([1]; Acinetobacter calcoaceticus, read-out: MIC90): 0.5 µg/mL (≈ 0.599 µM)
MIC90 (E. cloacae β19; Enterobacter cloacae, read-out: MIC90): 0.125 µg/mL (≈ 0.15 µM)
MIC90 (E. coli AG100; Escherichia coli, AG100, E. coli AG100, read-out: MIC90): < 0.0625 µg/mL
MIC90 (E. coli β4; Escherichia coli, read-out: MIC90): < 0.0625 µg/mL
MIC90 (K. pneumoniae 2011E; Klebsiella pneumoniae, 2011E, read-out: MIC90): 0.5 µg/mL (≈ 0.599 µM)
MIC90 (K. pneumoniae β10; [6]): < 0.0625 µg/mL
MIC90 (K. pneumoniae β11; [6]): 0.5 µg/mL (≈ 0.599 µM)
MIC90 (K. pneumoniae β13; [6]): < 0.0625 µg/mL
MIC90 (K. pneumoniae β14; [6]): 4 µg/mL (≈ 4.79 µM)
MIC90 (K. pneumoniae β9; [6]): 0.125 µg/mL (≈ 0.15 µM)
MIC90 (M. catarrhalis 2524; Moraxella catarrhalis, read-out: MIC90): < 0.0625 µg/mL
MIC90 (P. aeruginosa 1912E; Pseudomonas aeruginosa, 1912E, read-out: MIC90): 0.25 µg/mL (≈ 0.3 µM)
MIC90 (P. aeruginosa 37; Pseudomonas aeruginosa, 37, P. aeruginosa 37, read-out: MIC90): < 0.0625 µg/mL
MIC90 (P. aeruginosa 40; Pseudomonas aeruginosa, 40, P. aeruginosa 40, read-out: MIC90): < 0.0625 µg/mL
MIC90 (P. aeruginosa 43; [7]): 0.25 µg/mL (≈ 0.3 µM)
MIC90 (P. aeruginosa 6065Y; [7]): 0.5 µg/mL (≈ 0.599 µM)
number of clinical isolates that showed the respective MIC value ([2]; MIC 0.5 ug/mL): 1
number of clinical isolates that showed the respective MIC value ([2]; MIC 8 ug/mL): 2
number of clinical isolates that showed the respective MIC value ([2]; MIC >16 ug/mL): 3
number of clinical isolates that showed the respective MIC value ([3]; MIC 0.25 ug/mL): 1
number of clinical isolates that showed the respective MIC value ([3]; MIC 0.5 ug/mL): 2
number of clinical isolates that showed the respective MIC value ([3]; MIC 1 ug/mL): 3
number of clinical isolates that showed the respective MIC value ([3]; MIC 2 ug/mL): 1
number of clinical isolates that showed the respective MIC value ([3]; MIC 8 ug/mL): 4
number of clinical isolates that showed the respective MIC value ([3]; MIC 16 ug/mL): 4
number of clinical isolates that showed the respective MIC value ([3]; MIC <0.0625 ug/mL): 1
number of clinical isolates that showed the respective MIC value ([3]; MIC >16 ug/mL): 22
number of clinical isolates that showed the respective MIC value ([4]; MIC 0.0625 ug/mL): 1
number of clinical isolates that showed the respective MIC value ([4]; MIC 0.25 ug/mL): 2
number of clinical isolates that showed the respective MIC value ([4]; MIC 0.5 ug/mL): 3
number of clinical isolates that showed the respective MIC value ([4]; MIC 1 ug/mL): 1
number of clinical isolates that showed the respective MIC value ([4]; MIC 2 ug/mL): 2
number of clinical isolates that showed the respective MIC value ([4]; MIC 4 ug/mL): 3
number of clinical isolates that showed the respective MIC value ([4]; MIC 8 ug/mL): 1
number of clinical isolates that showed the respective MIC value ([4]; MIC >16 ug/mL): 3
antibacterial activity (in words) (19 clinical isolates): significantly improved
